Experimental data reported in patent US9580437B2, “Triazolopyrimidine compounds and uses thereof” (Novartis AG, priority 2014, dated 2017).

Columns and labels:
[1] = target: EED (1-441)-His protein (Homo sapiens (Human), UniProt O75530); assay: EED-H3K27Me3 peptide competition binding assay by AlphaScreen; settings: read-out: (a) IC50 EED Alphascreen binding Qualified
Excerpt: EED-H3K27Me3 peptide competition binding assay by AlphaScreen (α-screen)

[2] = target: wild type PRC2 (wtPRC2) complex (Homo sapiens (Human), UniProt O75530); assay: EED LC-MS assay; type: biochemical; settings: read-out: (b) IC50 EED LC-MS Qualified
Sequence of wild type PRC2 (wtPRC2) complex (O75530 whole entry): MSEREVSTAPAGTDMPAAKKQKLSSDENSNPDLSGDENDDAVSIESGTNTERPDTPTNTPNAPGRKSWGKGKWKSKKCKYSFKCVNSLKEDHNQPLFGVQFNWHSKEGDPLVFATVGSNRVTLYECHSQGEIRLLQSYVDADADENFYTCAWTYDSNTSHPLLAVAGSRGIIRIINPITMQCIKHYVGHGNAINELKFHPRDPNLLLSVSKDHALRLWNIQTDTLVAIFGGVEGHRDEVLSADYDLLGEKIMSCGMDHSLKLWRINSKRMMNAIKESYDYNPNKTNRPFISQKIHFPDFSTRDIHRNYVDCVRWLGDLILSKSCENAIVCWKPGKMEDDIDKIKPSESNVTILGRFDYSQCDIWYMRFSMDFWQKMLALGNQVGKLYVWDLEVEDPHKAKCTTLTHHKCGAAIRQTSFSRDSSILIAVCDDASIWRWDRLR
Sequence of wild type PRC2 (wtPRC2) complex (Q15910 whole entry partner): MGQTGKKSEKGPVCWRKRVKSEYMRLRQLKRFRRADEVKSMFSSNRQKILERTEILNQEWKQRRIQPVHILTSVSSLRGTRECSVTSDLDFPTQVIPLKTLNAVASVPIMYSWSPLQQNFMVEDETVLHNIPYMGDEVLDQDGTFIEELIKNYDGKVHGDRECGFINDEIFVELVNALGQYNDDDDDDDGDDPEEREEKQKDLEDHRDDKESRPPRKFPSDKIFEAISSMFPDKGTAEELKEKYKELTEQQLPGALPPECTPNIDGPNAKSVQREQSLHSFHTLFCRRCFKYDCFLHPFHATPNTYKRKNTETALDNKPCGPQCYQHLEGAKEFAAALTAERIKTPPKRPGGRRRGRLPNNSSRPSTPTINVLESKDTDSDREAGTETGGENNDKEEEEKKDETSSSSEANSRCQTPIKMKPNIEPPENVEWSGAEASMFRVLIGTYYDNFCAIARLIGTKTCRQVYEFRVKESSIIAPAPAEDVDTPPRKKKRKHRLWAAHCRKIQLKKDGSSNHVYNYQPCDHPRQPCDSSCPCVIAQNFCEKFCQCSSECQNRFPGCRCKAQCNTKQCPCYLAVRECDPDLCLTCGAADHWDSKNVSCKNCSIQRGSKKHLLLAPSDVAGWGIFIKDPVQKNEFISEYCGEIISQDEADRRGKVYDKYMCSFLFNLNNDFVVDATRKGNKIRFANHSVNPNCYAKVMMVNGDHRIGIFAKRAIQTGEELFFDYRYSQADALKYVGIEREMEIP
Sequence of wild type PRC2 (wtPRC2) complex (Q15022 whole entry partner): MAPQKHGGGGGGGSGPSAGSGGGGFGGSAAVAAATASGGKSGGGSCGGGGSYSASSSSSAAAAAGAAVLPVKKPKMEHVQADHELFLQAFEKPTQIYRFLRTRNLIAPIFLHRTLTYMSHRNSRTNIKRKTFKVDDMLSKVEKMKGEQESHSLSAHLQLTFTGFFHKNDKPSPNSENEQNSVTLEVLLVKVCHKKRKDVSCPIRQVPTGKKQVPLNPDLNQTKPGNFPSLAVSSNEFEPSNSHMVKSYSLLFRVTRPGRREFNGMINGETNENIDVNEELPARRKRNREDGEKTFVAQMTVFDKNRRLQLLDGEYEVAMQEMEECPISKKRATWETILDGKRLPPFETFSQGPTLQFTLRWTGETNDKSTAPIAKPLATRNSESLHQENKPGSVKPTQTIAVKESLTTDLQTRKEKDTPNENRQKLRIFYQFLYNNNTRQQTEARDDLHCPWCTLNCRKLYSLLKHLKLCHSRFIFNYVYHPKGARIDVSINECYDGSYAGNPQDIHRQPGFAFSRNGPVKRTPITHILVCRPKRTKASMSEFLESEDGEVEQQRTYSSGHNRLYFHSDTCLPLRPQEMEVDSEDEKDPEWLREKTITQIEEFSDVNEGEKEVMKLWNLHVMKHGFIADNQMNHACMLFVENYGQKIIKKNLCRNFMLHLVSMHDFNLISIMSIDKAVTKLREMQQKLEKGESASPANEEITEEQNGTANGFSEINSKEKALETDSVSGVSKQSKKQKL
Experimental: A 6 μL solution of 3 μM of the peptide substrate H3K27Me0 (histone H3[21-44]-biotin) in reaction buffer was added to initiate each reaction. […] ELISA (H3K27 Methylation) Assay

Sequence of EED (1-441)-His protein (O75530 whole entry): as the sequence (O75530 whole entry) above

Compound	IC50 [1] [nM]	IC50 [2] [nM]
O=C1CCCN1c1cncc(-c2cnc(NCc3cccc4c3CCO4)n3cnnc23)c1 [Example 87, 1-(5-(5-(((2,3-dihydrobenzofuran-4-yl)methyl)amino)-[1,2,4]triazolo[4,3-c]pyrimidin-8-yl)pyridin-3-yl)pyrrolidin-2-one]	41.8	83.9
CC(O)c1ccc(-c2cnc(NCc3cccc4c3CCO4)n3cnnc23)cn1 (stereo not drawn) [Example 84, 1-(5-(5-(((2,3-dihydrobenzofuran-4-yl)methyl)amino)-[1,2,4]triazolo[4,3-c]pyrimidin-8-yl)pyridin-2-yl)ethanol]	6.3	12.9
Cc1c(-c2cnc(NCc3cccc4c3CCO4)n3cnnc23)cnn1C [Example 64, N-((2,3-dihydrobenzofuran-4-yl)methyl)-8-(1,5-dimethyl-1H-pyrazol-4-yl)-[1,2,4]triazolo[4,3-c]pyrimidin-5-amine]	12.4	41.3
Fc1ccc2c(c1CNc1ncc(-c3ccc(N4CCSCC4)nc3)c3nncn13)CCO2 [Example 91, N-((5-fluoro-2,3-dihydrobenzofuran-4-yl)methyl)-8-(6-thiomorpholinopyridin-3-yl)-[1,2,4]triazolo[4,3-c]pyrimidin-5-amine]	9.9	15.3
Cc1cc(C)c(-c2cnc(NCc3c(F)ccc4c3CCO4)n3cnnc23)cn1 [Example 222, 8-(4,6-dimethylpyridin-3-yl)-N-((5-fluoro-2,3-dihydrobenzofuran-4-yl)methyl)-[1,2,4]triazolo[4,3-c]pyrimidin-5-amine]	11.7	14
Cc1nc(OC2CC2)ncc1-c1cnc(NCc2c(F)ccc3c2CCO3)n2cnnc12 [Example 225, 8-(2-cyclopropoxy-4-methylpyrimidin-5-yl)-N-((5-fluoro-2,3-dihydrobenzofuran-4-yl)methyl)-[1,2,4]triazolo[4,3-c]pyrimidin-5-amine]	7.5	10.6
O=C(c1ccc(-c2cnc(NCc3cccc4occc34)n3cnnc23)cc1)N1CCCC1 [Example 216, (4-(5-((benzofuran-4-ylmethyl)amino)-[1,2,4]triazolo[4,3-c]pyrimidin-8-yl)phenyl)(pyrrolidin-1-yl)methanone]	132	183
CN(C)C(=O)c1ccc(-c2cnc(NCc3c(F)ccc4c3CCO4)n3cnnc23)cn1 [Example 140, 5-(5-(((5-fluoro-2,3-dihydrobenzofuran-4-yl)methyl)amino)-[1,2,4]triazolo[4,3-c]pyrimidin-8-yl)-N,N-dimethylpicolinamide]	12.7	55.1
CS(=O)(=O)CCCOc1cncc(-c2cnc(NCc3cccc4c3CCO4)n3cnnc23)c1 [Example 98, N-((2,3-dihydrobenzofuran-4-yl)methyl)-8-(5-(3-(methylsulfonyl)propoxy)pyridin-3-yl)-[1,2,4]triazolo[4,3-c]pyrimidin-5-amine]	21.7	35.6
Cc1cn(-c2cnc(NCc3c(F)ccc4c3CCO4)n3cnnc23)cn1 [Example 233, N-((5-fluoro-2,3-dihydrobenzofuran-4-yl)methyl)-8-(4-methyl-1H-imidazol-1-yl)-[1,2,4]triazolo[4,3-c]pyrimidin-5-amine]	3.9	11.5
Cn1cc(-c2cnc(NCc3c(F)ccc4c3CCO4)n3cnnc23)c(C(F)(F)F)n1 [Example 170, N-((5-fluoro-2,3-dihydrobenzofuran-4-yl)methyl)-8-(1-methyl-3-(trifluoromethyl)-1H-pyrazol-4-yl)-[1,2,4]triazolo[4,3-c]pyrimidin-5-amine]	10.7	12.1
Cc1cc(-c2cnc(NCc3cccc4c3CCO4)n3cnnc23)cnc1S(C)(=O)=O [Example 70, N-((2,3-dihydrobenzofuran-4-yl)methyl)-8-(5-methyl-6-(methylsulfonyl)pyridin-3-yl)-[1,2,4]triazolo[4,3-c]pyrimidin-5-amine]	11.5	21.1
N#Cc1ccc(-c2cnc(NCc3c(F)ccc4c3CCO4)n3cnnc23)cn1 [Example 93, 5-(5-(((5-fluoro-2,3-dihydrobenzofuran-4-yl)methyl)amino)-[1,2,4]triazolo[4,3-c]pyrimidin-8-yl)picolinonitrile]	7.9	12.5
CN(C)C(=O)CCc1ccc(-c2cnc(NCc3cccc4c3CCO4)n3cnnc23)cn1 [Example 135, 3-(5-(5-(((2,3-dihydrobenzofuran-4-yl)methyl)amino)-[1,2,4]triazolo[4,3-c]pyrimidin-8-yl)pyridin-2-yl)-N,N-dimethylpropanamide]	5.7	11.2
N#Cc1ccccc1-c1cnc(NCc2c(F)ccc3c2CCO3)n2cnnc12 [Example 121, 2-(5-(((5-fluoro-2,3-dihydrobenzofuran-4-yl)methyl)amino)-[1,2,4]triazolo[4,3-c]pyrimidin-8-yl)benzonitrile]	13.4	22.1
CS(=O)(=O)c1ccc(-c2cnc(NCc3c(F)ccc4c3CCO4)n3cnnc23)cc1 [Example 37, N-((5-fluoro-2,3-dihydrobenzofuran-4-yl)methyl)-8-(4-(methylsulfonyl)phenyl)-[1,2,4]triazolo[4,3-c]pyrimidin-5-amine]	12.3	20.7
Cc1ccc(-c2cnc(NCc3c(F)ccc4c3CCO4)n3cnnc23)c(C(F)F)n1 [Example 201, 8-(2-(difluoromethyl)-6-methylpyridin-3-yl)-N-((5-fluoro-2,3-dihydrobenzofuran-4-yl)methyl)-[1,2,4]triazolo[4,3-c]pyrimidin-5-amine]	5.9	7.3
O=C1CN(Cc2ccc(-c3cnc(NCc4cccc5c4CCO5)n4cnnc34)cn2)CCN1 [Example 133, 4-((5-(5-(((2,3-dihydrobenzofuran-4-yl)methyl)amino)-[1,2,4]triazolo[4,3-c]pyrimidin-8-yl)pyridin-2-yl)methyl)piperazin-2-one]	8.7	22.3
Cc1cc(-c2cnc(NCc3cccc4c3CCO4)n3cnnc23)ccc1C(=O)N(C)C [Example 49, 4-(5-(((2,3-dihydrobenzofuran-4-yl)methyl)amino)-[1,2,4]triazolo[4,3-c]pyrimidin-8-yl)-N,N,2-trimethylbenzamide]	12.5	12.8
Cc1c(-c2cnc(NCc3c(F)ccc4c3CCO4)n3cnnc23)ccnc1C(F)F [Example 181, 8-(2-(difluoromethyl)-3-methylpyridin-4-yl)-N-((5-fluoro-2,3-dihydrobenzofuran-4-yl)methyl)-[1,2,4]triazolo[4,3-c]pyrimidin-5-amine]	2.6	6
CCc1ccc(-c2cnc(NCc3c(F)ccc4c3CCO4)n3cnnc23)c(C)n1 [Example 229, 8-(6-ethyl-2-methylpyridin-3-yl)-N-((5-fluoro-2,3-dihydrobenzofuran-4-yl)methyl)-[1,2,4]triazolo[4,3-c]pyrimidin-5-amine]	5.9	6.7
Cc1c(-c2cnc(NCc3c(F)ccc4c3C(O)CO4)n3cnnc23)ccc[n+]1[O-] (stereo not drawn) [Example 244, 3-(5-(((5-fluoro-3-hydroxy-2,3-dihydrobenzofuran-4-yl)methyl)amino)-[1,2,4]triazolo[4,3-c]pyrimidin-8-yl)-2-methylpyridine 1-oxide]	11.7	38.9
Cc1nn(C)c(C)c1-c1cnc(NCc2cccc3c2CCO3)n2cnnc12 [Example 24, N-((2,3-dihydrobenzofuran-4-yl)methyl)-8-(1,3,5-trimethyl-1H-pyrazol-4-yl)-[1,2,4]triazolo[4,3-c]pyrimidin-5-amine]	30.4	37
CS(=O)(=O)Nc1ccc(-c2cnc(NCc3c(F)ccc4c3CCO4)n3cnnc23)cc1F [Example 39, N-(2-fluoro-4-(5-(((5-fluoro-2,3-dihydrobenzofuran-4-yl)methyl)amino)-[1,2,4]triazolo[4,3-c]pyrimidin-8-yl)phenyl)methanesulfonamide]	17.8	17.5
CNC(=O)c1ccc(-c2cnc(NCc3cccc4c3CCO4)n3cnnc23)cn1 [Example 79, 5-(5-(((2,3-dihydrobenzofuran-4-yl)methyl)amino)-[1,2,4]triazolo[4,3-c]pyrimidin-8-yl)-N-methylpicolinamide]	57.5	103
CS(=O)(=O)c1ccc(-c2cnc(NCc3cccc4c3CCO4)n3cnnc23)cn1 [Example 28, N-((2,3-dihydrobenzofuran-4-yl)methyl)-8-(6-(methylsulfonyl)pyridin-3-yl)-[1,2,4]triazolo[4,3-c]pyrimidin-5-amine]	11.1	27.6
CN(C)Cc1ccc(-c2cnc(NCc3c(F)ccc4occc34)n3cnnc23)cc1 [Example 219, 8-(4-((dimethylamino)methyl)phenyl)-N-((5-fluorobenzofuran-4-yl)methyl)-[1,2,4]triazolo[4,3-c]pyrimidin-5-amine]	6.5	6.8
COc1nccc(-c2cnc(NCc3c(F)ccc4c3CCO4)n3cnnc23)c1C [Example 230, N-((5-fluoro-2,3-dihydrobenzofuran-4-yl)methyl)-8-(2-methoxy-3-methylpyridin-4-yl)-[1,2,4]triazolo[4,3-c]pyrimidin-5-amine]	12.9	24.5
FC(F)Oc1ccc(-c2cnc(NCc3cccc4c3CCO4)n3cnnc23)cn1 [Example 78, 8-(6-(difluoromethoxy)pyridin-3-yl)-N-((2,3-dihydrobenzofuran-4-yl)methyl)-[1,2,4]triazolo[4,3-c]pyrimidin-5-amine]	103	160
Cc1cc(C#N)ccc1-c1cnc(NCc2c(F)ccc3c2CCO3)n2cnnc12 [Example 178, 4-(5-(((5-fluoro-2,3-dihydrobenzofuran-4-yl)methyl)amino)-[1,2,4]triazolo[4,3-c]pyrimidin-8-yl)-3-methylbenzonitrile]	5.4	7
